Data set [1] in a line: Cytotoxicity against human Raji cells assessed as cell viability at 1000 molar ratio. Format: cell-based. The following applies: read-out: Activity.
The subject of data set [2] is Raji. Nature of the data set: Inhibition of TPA-induced EBV-early antigen activation in human Raji cells at 100 molar ratio after 48 hrs by indirect immunofluorescence technique relative to TPA. The following applies: human gammaherpesvirus 4. It is filed as cell-based.
The test system of data set [3] is Raji. Nature of the data set: Inhibition of TPA-induced EBV-early antigen activation in human Raji cells at 500 molar ratio after 48 hrs by indirect immunofluorescence technique relative to TPA. It is filed as cell-based. To be noted: human gammaherpesvirus 4.
The nature of data set [4]: Cytotoxicity against human Raji cells assessed as cell viability at 100 molar ratio. Format: cell-based. The following applies: read-out: Activity.
A short description of data set [5]: Cytotoxicity against human Raji cells assessed as cell viability at 500 molar ratio. It is filed as cell-based. To be noted: read-out: Activity.
The subject of data set [6] is Raji. Nature of the data set: Inhibition of TPA-induced EBV-early antigen activation in human Raji cells at 10 molar ratio after 48 hrs by indirect immunofluorescence technique relative to TPA. It is filed as cell-based. To be noted: human gammaherpesvirus 4.
Data set [7] can be described thus: Cytotoxicity against human Raji cells assessed as cell viability at 10 molar ratio. Format: cell-based. The following applies: read-out: Activity.
For another data set, the species on record is Mus musculus. Kind of data set: Displacement of [3H]TPA from TPA receptor in ICR mouse dorsal epidermis.

Active and inactive are the calls of the source. No cut-off for these calls is given here.

Consider `O=C1c2ccc3c(c2C(=O)c2cccc(O)c21)OCO3`, for which, in data set [1], the viability at 1000 molar ratio is > 80%. For the same molecule, the EBV-EA activation % of TPA control was determined as 53.8% in the data set with Raji [2], 36.5% in the data set with Raji [3] and 79.5% with Raji [6]. For the same molecule, in data set [4], the viability at 100 molar ratio was > 80%. The viability at 500 molar ratio in data set [5] was > 80%. The viability at 10 molar ratio in data set [7] was > 80%. In addition, the result in the data set filed under Mus musculus was inactive.

Turning to `CC(=O)c1cc2c(o1)C(=O)c1ccccc1C2=O` [NAPABUCASIN], in data set [1], the viability at 1000 molar ratio was 0%. Besides, the EBV-EA activation % of TPA control in the data set with Raji [2] was 0%; in the data set with Raji [3] it was 0%; with Raji [6], 32.7%. The viability at 100 molar ratio in data set [4] was 70%. Besides, the viability at 500 molar ratio in data set [5] is 0%. Further, the viability at 10 molar ratio in data set [7] is > 80%. Moreover, the outcome in the data set listed under Mus musculus was inactive.

With `CC(C)=CC[C@@H](O)C1=CC(=O)c2c(O)ccc(O)c2C1=O` [SHIKONIN], the viability at 1000 molar ratio in data set [1] was found to be 0%. The EBV-EA activation % of TPA control in the data set on Raji [2] stood at 15.8%; in the data set on Raji [3] it was 0%; in the data set with Raji [6], 31.5%. For the same molecule, the viability at 100 molar ratio in data set [4] was determined as 50%. Moreover, the viability at 500 molar ratio in data set [5] amounted to 10%. Besides, the viability at 10 molar ratio in data set [7] was > 80%. The outcome in the data set filed under Mus musculus was inactive.

`COc1cccc2c1C(=O)c1ccc3c(c1C2=O)OCO3`: the viability at 1000 molar ratio in data set [1] was > 80%. For the same molecule, the EBV-EA activation % of TPA control came to 33% with Raji [2], 32.7% with Raji [3] and 100% in the data set on Raji [6]. The viability at 100 molar ratio in data set [4] is > 80%. For the same molecule, the viability at 500 molar ratio in data set [5] was > 80%. In addition, the viability at 10 molar ratio in data set [7] is > 80%. The outcome in the data set listed under Mus musculus was inactive.

For the origin of these results see ChEMBL document CHEMBL1147306, “Studies on inhibitors of skin tumor promotion, VI. Inhibitory effects of quinones on Epstein-Barr virus activation” (J Nat Prod, 1989).
